Results published in paper PMC11243327, “Design, Synthesis, Antitumor, and Antiplasmodial Evaluation of New 7-Chloroquinoline–Benzimidazole Hybrids” (Molecules, 2024).
Read-outs that look alike come from different tables or passages of the source.

Assays:
[1] = tested on: MRC-5 (human fetal lung fibroblasts); assay: Antiproliferative MTT assay, MRC-5; format: cell-based; settings: Homo sapiens, MRC5, non-tumor cell line, 72 h, mean ± SD of three experiments
Protocol: (§1) The effect of the new synthesized compounds was tested on five human tumor cell lines, HeLa (human cervical adenocarcinoma; from ATCC), CaCo-2 (human colorectal adenocarcinoma), HL-60 (acute promyelocytic leukemia), HuT78 (T-cell lymphoma), and THP-1 (acute monocytic leukemia), as well as one non-tumor cell line, MRC-5 (human fetal lung fibroblasts). The MRC-5 cells were used between 24 and 26 passages. The cells were cultured in two different types of media: DMEM (Gibco Thermo Fisher Scinetific Inc., Runcorn, UK) and RPMI 1640 (Gibco, Thermo Fisher Scinetific Inc., UK). Both media were supplemented with 2 mM glutamine, fetal bovine serum (10%; heat inactivated), and antibiotics (100 U penicillin and 0.1 mg streptomycin). RPMI 1640 was additionally supplemented with 10 mM HEPES and 1 mM sodium pyruvate. Cells growing in a monolayer were cultured in DMEM, while cells growing in suspension were cultured in RPMI 1640. Cells were grown in humidified atmosphere under the conditions of 37 °C/5% CO2 gas in a CO2 incubator (IGO 150 CELLlife^TM, JOUAN, Thermo Fisher Scientific, Waltham, MA, USA).
(§2) Growth-inhibitory activity was assessed using a slightly modified procedure based on the National Cancer Institute’s protocol. Briefly, cells were seeded in 96-well microtiter plates and incubated for 24 h. They were then treated with 10^−7 to 10^−4 M concentrations of the tested compounds for an additional 72 h. After the treatment period, the effects of the tested compounds on the growth rate of the cells were examined using the MTT assay. Absorbance was measured at 595 nm using a microplate reader. The IC50 value, which represents a 50% inhibition of cell growth, and QC calculation were performed using the GraphPadPrism software (La Jolla, USA), v. 5.03. and Excel software, Office 365. The selectivity index was calculated according to the following formula: SI=IC50 value of normal cell line/IC50 value of cancer cell line
(§3) The effect of each concentration was analyzed by plotting the logarithm of the concentration of the evaluated compound against the corresponding percentage inhibition value using least squares.

[2] = tested on: THP-1 (acute monocytic leukemia); assay: Antiproliferative MTT assay, THP-1; format: cell-based, human; settings: Homo sapiens, THP-1, 72 h, mean ± SD of three experiments
Protocol: as §1, §2, §3

[3] = tested on: HL-60 (acute promyelocytic leukemia); assay: Antiproliferative MTT assay, HL-60; format: cell-based, human; settings: Homo sapiens, HL-60, 72 h, mean ± SD of three experiments
Protocol: as §1, §2, §3

[4] = tested on: HeLa (human cervical adenocarcinoma); settings: previously published result, cited from earlier work
[5] = tested on: P. falciparum 3D7 (CQ-susceptible), erythrocytic stage; assay: Antiplasmodial HRP2 assay, Pf3D7; format: cell-based, Plasmodium falciparum; settings: Plasmodium falciparum, 3D7, 72 h; chloroquine-sensitive strain, three days incubation, HRP2-ELISA, mean ± SD, n ≥ 2; read-out: IC50 Pf3D7
Protocol: (§4) Method used to evaluate the antiplasmodial activity of quinoline–benzimidazole hybrids against two P. falciparum strains, chloroquine-sensitive (Pf3D7) and chloroquine-resistant (PfDd2), was previously described. […] Chloroquine was used as a positive control.
(§5) In brief, 96-well plates were pre-coated with the tested compounds at 1:3 dilution before ring-stage parasites were added to the complete culture medium at a hematocrit of 1.5% and a parasitemia of 0.05%. […] All compounds were analyzed in duplicate in at least two independent experiments. The IC50 was determined by nonlinear regression analysis of the logarithmic concentration-response curves using the drc package v3.0-1 of R v4.1.0 [56].

HuT78 (T-cell lymphoma) [6] = assay: Antiproliferative MTT assay, Hut78; format: cell-based, human; settings: Homo sapiens, HuT78, 72 h, mean ± SD of three experiments
Protocol: as §1, §2, §3

[7] = tested on: P. falciparum Dd2 (multiresistant), erythrocytic stage; assay: Antiplasmodial HRP2 assay, PfDd2; format: cell-based, Plasmodium falciparum; settings: Plasmodium falciparum, DD2, 72 h; chloroquine-resistant strain, three days incubation, HRP2-ELISA, mean ± SD, n ≥ 2; read-out: IC50 PfDd2
Protocol: as §4, §5

[8] = tested on: CaCo-2 (human colorectal adenocarcinoma); settings: previously published result, cited from earlier work
HuT78 (T-cell lymphoma) [9] = tested on: HuT78 (T-cell lymphoma); set-up: method as in PMID 36677600; settings: previously published result, ref [19]; cited from earlier work
[10] = tested on: THP-1 (acute monocytic leukemia); set-up: method as in PMID 36677600; settings: previously published result, ref [19]; cited from earlier work
[11] = tested on: MRC-5 (human fetal lung fibroblasts); set-up: method as in PMID 36677600; settings: previously published result, ref [19]; cited from earlier work
[12] = tested on: HL-60 (acute promyelocytic leukemia); set-up: method as in PMID 36677600; settings: previously published result, ref [19]; cited from earlier work
[13] = tested on: CaCo-2 (human colorectal adenocarcinoma); assay: Antiproliferative MTT assay, CaCo-2; format: cell-based; settings: Homo sapiens, Caco-2, 72 h, mean ± SD of three experiments
Protocol: as §1, §2, §3

[14] = tested on: HeLa (human cervical adenocarcinoma); assay: Antiproliferative MTT assay, HeLa; format: cell-based; settings: Homo sapiens, HeLa, 72 h, mean ± SD of three experiments
Protocol: as §1, §2, §3

[15] = Antiproliferative MTT assay, whole panel of cell lines; format: cell-based; settings: human, range over the cell lines tested, read-out: IC50 (cytotoxicity) across non-tumor and tumor cell lines
Protocol: as §1, with “Cells growing in a monolayer were cultured in DMEM, while cells growing in suspension were cultured in RPMI 1640. Cells were grown in humidified atmosphere under the conditions of 37 °C/5% CO2 gas in a CO2 incubator (IGO 150 CELLlife^TM, JOUAN, Thermo Fisher Scientific, Waltham, MA, USA).” left out
Growth-inhibitory activity was assessed using a slightly modified procedure based on the National Cancer Institute’s protocol. […] Absorbance was measured at 595 nm using a microplate reader. […] The selectivity index was calculated according to the following formula: SI=IC50 value of normal cell line/IC50 value of cancer cell line
as §3

Row | Compound | IC50 [2] [µM] | IC50 [3] [nM] | IC50 [5] [nM] | IC50 (HuT78 (T-cell lymphoma) [6]) [nM] | IC50 [7] [nM] | melting point | IC50 [13] [nM] | IC50 [14] [nM] | IC50 [1] [nM] | IC50 ([4]; ref [18]) [µM] | IC50 ([8]; ref [18]) [µM] | IC50 (HuT78 (T-cell lymphoma) [9]) [µM] | IC50 [10] [µM] | IC50 ([4]; ref [19]) [µM] | IC50 [11] [µM] | IC50 ([8]; ref [19]) [µM] | IC50 [12] [µM] | IC50 at 72 h [15] [µM]
1 | N=C(NC1CCCC1)c1ccc2nc(-c3ccc(OCCNc4ccnc5cc(Cl)ccc45)cc3)[nH]c2c1 [Compound 10d] | > 100 | > 100000 | 58.5 ± 5.9 | 92000 ± 6100 | 36.9 ± 17.7 |  |  |  | 99200 ± 8300 | > 100 | > 100 |  |  |  |  |  |  | 
2 | O=c1[nH]cc(F)c(=O)[nH]1 [Compound 5-FU, 5-fluorouracil] |  |  |  |  |  |  |  |  |  |  |  | > 100 | > 100 | 8.2 | 54.1 | 5.9 | 76.4 | 
3 | COc1ccc2nc(-c3ccc(OCCNc4ccnc5cc(Cl)ccc45)c(Br)c3)[nH]c2c1 [Compound 11c, N-{[2-bromo-4-(5(6)-methoxy-1H-benzo[d]imidazole-2-yl)phenoxy]ethyl}-7-chloroquinolin-4-amine] | 3.5 ± 7.3 | 2200 ± 400 | 19.7 ± 4.2 | 3000 ± 1100 | 28 ± 0.6 | 208 to 210 °C | 1500 ± 300 | 2500 ± 400 | 5300 ± 2400 |  |  |  |  |  |  |  |  | 
4 | Clc1ccc2c(NCCOc3ccc(-c4nc5ccccc5[nH]4)cc3Br)ccnc2c1 [Compound 11a, N-{2-[4-(1H-benzo[d]imidazole-2-yl)-2-bromophenoxy]ethyl}-7-chloroquinolin-4-amine] | 4.9 ± 7.3 | 300 ± 300 | 36.9 ± 1.5 | 2400 ± 600 | 8.7 ± 3.4 | 226 to 228 °C | 2100 ± 600 | 2600 ± 200 | 2200 ± 800 |  |  |  |  |  |  |  |  | 
5 | COc1cc(-c2nc3ccccc3[nH]2)ccc1OCCNc1ccnc2cc(Cl)ccc12 [Compound 12a, N-{[4-(1H-benzo[d]imidazole-2-yl)-2-methoxyphenoxy]ethyl}-7-chloroquinolin-4-amine] | 3 ± 0.6 | 2000 ± 300 | 14.5 ± 4 | 4200 ± 2100 | 91.2 ± 9.5 | 210 to 212 °C | 2000 ± 300 | 2200 ± 100 | 3800 ± 400 |  |  |  |  |  |  |  |  | 
6 | COc1ccc2nc(-c3ccc(OCCNc4ccnc5cc(Cl)ccc45)cc3)[nH]c2c1 [Compound 10c, 7-chloro-N-{2-[4-(5(6)-methoxy-1H-benzo[d]imidazole-2-yl)phenoxy]ethyl}quinolin-4-amine] | 3.8 ± 0.4 | 1800 ± 500 | 6.8 ± 1.8 | 2300 ± 800 | 10.1 ± 5 | 248 °C (dec.) | 1700 ± 100 | 2600 ± 400 | 4900 ± 1700 |  |  |  |  |  |  |  |  | 

The next lines start with results.

Row | IC50 [2] [µM] | IC50 [3] [nM] | IC50 [5] [nM] | IC50 (HuT78 (T-cell lymphoma) [6]) [nM] | IC50 [7] [nM] | melting point | IC50 [13] [nM] | IC50 [14] [nM] | Compound | IC50 [1] [nM] | IC50 ([4]; ref [18]) [µM] | IC50 ([8]; ref [18]) [µM] | IC50 (HuT78 (T-cell lymphoma) [9]) [µM] | IC50 [10] [µM] | IC50 ([4]; ref [19]) [µM] | IC50 [11] [µM] | IC50 ([8]; ref [19]) [µM] | IC50 [12] [µM] | IC50 at 72 h [15] [µM]
7 | 29.6 ± 0.3 | 19500 ± 1100 | 28.7 ± 9.4 | 12800 ± 5500 | 22.9 ± 4.3 |  | > 100000 | > 100000 | COc1cc(-c2nc3ccc(C(=N)NC4CCCC4)cc3[nH]2)ccc1OCCCNc1ccnc2cc(Cl)ccc12 [Compound 15d] | 95200 ± 9700 |  |  |  |  |  |  |  |  | 12.8 to 100
8 | 2.1 ± 0.7 | 200 ± 100 | 2.4 ± 1.4 | 300 ± 200 | 3.9 ± 1.1 | 198 to 200 °C | 1600 ± 400 | 600 ± 100 | Clc1ccc2c(NCCCOc3ccc(-c4nc5ccc(Cl)cc5[nH]4)cc3)ccnc2c1 [Compound 13b] | 400 ± 100 |  |  |  |  |  |  |  |  | 
9 | 6.1 ± 6.9 | 3300 ± 1100 | 11.1 ± 0.3 | 3700 ± 5200 | 21.5 ± 2.5 | 222 °C | 4700 ± 4000 | 5600 ± 1300 | COc1cc(-c2nc3ccc(Cl)cc3[nH]2)ccc1OCCNc1ccnc2cc(Cl)ccc12 [Compound 12b, 7-chloro-N-{[4-(5(6)-chloro-benzo[d]imidazole-2-yl)-2-methoxyphenoxy]ethyl}quinolin-4-amine] | 3000 ± 1600 |  |  |  |  |  |  |  |  | 
10 | 5.2 ± 1.8 | 300 ± 100 | 11.4 ± 4 | 600 ± 100 | 11.8 ± 3.2 | 230 °C (dec.) | 1600 ± 900 | 800 ± 700 | COc1ccc2nc(-c3ccc(OCCCNc4ccnc5cc(Cl)ccc45)c(Br)c3)[nH]c2c1 [Compound 14c, N-{[2-bromo-4-(5(6)-methoxy-1H-benzo[d]imidazole-2-yl)phenoxy]propyl}-7-chloroquinolin-4-amine] | 400 ± 100 |  |  |  |  |  |  |  |  | 
11 | 3.1 ± 0.8 | 200 | 9.7 ± 0.2 | 2400 ± 1100 | 15.4 ± 2 | 218 to 219 °C | 2100 ± 300 | 2700 ± 200 | COc1ccc2nc(-c3ccc(OCCNc4ccnc5cc(Cl)ccc45)c(OC)c3)[nH]c2c1 [Compound 12c, 7-chloro-N-{[4-(5(6)-methoxy-benzo[d]imidazole-2-yl)-2-methoxyphenoxy]ethyl}quinolin-4-amine] | 1100 ± 800 |  |  |  |  |  |  |  |  | 
12 | 2.2 ± 0.3 | 200 | 6.9 ± 1.7 | 700 ± 600 | 16.5 ± 5.7 | 220 °C (dec.) | 1500 ± 300 | 1200 ± 600 | COc1ccc2nc(-c3ccc(OCCCNc4ccnc5cc(Cl)ccc45)c(OC)c3)[nH]c2c1 [Compound 15c, 7-chloro-N-{[4-(5(6)-methoxy-benzo[d]imidazole-2-yl)-2-methoxyphenoxy]propyl}quinolin-4-amine] | 700 ± 600 |  |  |  |  |  |  |  |  | 
